In ChEMBL document CHEMBL1201862, “PubChem BioAssay data set” (2004):
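These data come from cells grown in 96-well plates and exposed to compound for 48 hours at five concentrations. GI50: concentration for 50% inhibition of growth.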 The source made the active and inactive calls. Rule as the data show it: active = GI50 up to about 1.1 µM and inactive = higher.

Tests used:
Assay in all cases: NCI tumour cell line growth inhibition, 48 h
UO-31 = system: UO-31
MOLT-4 = system: MOLT-4
BT-549 = system: BT-549
KM12 = system: KM12
HT-29 = system: HT-29
HCT-116 = system: HCT-116
HCT-15 = system: HCT-15
OVCAR-8 = system: OVCAR-8
SK-OV-3 = system: SK-OV-3
SF-295 = system: SF-295
DU-145 = system: DU-145
NCI-H460 = system: NCI-H460
HL-60 = system: HL-60
K562 = system: K562
RPMI-8226 = system: RPMI-8226
UACC-62 = system: UACC-62
MDA-MB-231 = system: MDA-MB-231
NCI-H23 = system: NCI-H23
Malme-3M = system: Malme-3M
RXF 393 = system: RXF 393

| SMILES | GI50 (UO-31) | GI50 (MOLT-4) | GI50 (BT-549) | GI50 (KM12) | GI50 (HT-29) | GI50 (HCT-116) | GI50 (HCT-15) [µM] | GI50 (OVCAR-8) | GI50 (SK-OV-3) | GI50 (SF-295) | GI50 (DU-145) | GI50 (NCI-H460) | GI50 (HL-60) | GI50 (K562) | GI50 (RPMI-8226) | GI50 (UACC-62) | GI50 (MDA-MB-231) | GI50 (NCI-H23) | GI50 (Malme-3M) | GI50 (RXF 393) |
| --- | --- | --- | --- | --- | --- | --- | --- | --- | --- | --- | --- | --- | --- | --- | --- | --- | --- | --- | --- | --- |
| COc1cc(NCC2COc3c(ccc(OC)c3OC)C2=O)c([N+](=O)[O-])cc1OC (centres undefined) | > 100 µM (inactive) | 16.4 µM (inactive) | > 10 µM (inactive) | > 100 µM (inactive) | > 100 µM (inactive) | > 100 µM (inactive) | > 100 | > 100 µM (inactive) | > 100 µM (inactive) | 66.1 µM (inactive) | > 100 µM (inactive) | 35.2 µM (inactive) | 36.8 µM (inactive) | 31 µM (inactive) | 12.3 µM (inactive) | 77.8 µM (inactive) | 79.1 µM (inactive) | > 100 µM (inactive) |  |  |
| NC1CC=C(COC(=O)C(O)(c2ccccc2)C2CC2)CC1 (centres undefined) | > 100 µM (inactive) | > 100 µM (inactive) |  | > 100 µM (inactive) | > 100 µM (inactive) | > 100 µM (inactive) | > 100 | > 100 µM (inactive) | > 100 µM (inactive) | > 100 µM (inactive) | > 100 µM (inactive) |  |  |  | > 100 µM (inactive) | > 100 µM (inactive) | > 100 µM (inactive) | > 100 µM (inactive) | > 100 µM (inactive) | > 100 µM (inactive) |
| CN(C)CCCNC(=O)c1cc(NC(=O)c2cc(NC(=O)CCCn3c4ccccc4c4ccccc43)cn2C)cn1C | 25.6 µM (inactive) | 2.02 µM (inactive) | 15 µM (inactive) | 6.28 µM (inactive) | 2.59 µM (inactive) | 3.27 µM (inactive) | 28.1 | 22.8 µM (inactive) | 12 µM (inactive) | 18.5 µM (inactive) | 17.9 µM (inactive) | 10.1 µM (inactive) | 11.6 µM (inactive) | 3.13 µM (inactive) | 3.08 µM (inactive) |  |  | 14.8 µM (inactive) | 6.03 µM (inactive) | 12.6 µM (inactive) |
| COC(=O)c1c(C(=O)OC)c2ccc(-c3ccc(Cl)cc3)nn2c1C(=O)c1ccc([N+](=O)[O-])cc1 | 32.1 µM (inactive) | 15.3 µM (inactive) |  | > 100 µM (inactive) | 37.2 µM (inactive) | 27.2 µM (inactive) | 25.2 | 36.2 µM (inactive) | > 100 µM (inactive) | > 100 µM (inactive) | > 100 µM (inactive) | > 100 µM (inactive) | < 0.01 µM (active) | 14.2 µM (inactive) | 16.7 µM (inactive) | > 100 µM (inactive) | > 100 µM (inactive) | > 100 µM (inactive) |  | 8.83 µM (inactive) |
| C=C1CCC2[C@](C)(CCC[C@]2(C)C(=O)O)[C@@H]1CCc1ccoc1 (some centres undefined) | 36.5 µM (inactive) | 32.5 µM (inactive) |  | 18.7 µM (inactive) | 24.2 µM (inactive) | 33.7 µM (inactive) | 26.8 |  | > 100 µM (inactive) | 47.5 µM (inactive) | 43.5 µM (inactive) | 33.9 µM (inactive) | 45.8 µM (inactive) | 53.5 µM (inactive) | 44.7 µM (inactive) | 35.2 µM (inactive) | 49.2 µM (inactive) | 21.4 µM (inactive) | 32.2 µM (inactive) | 36.2 µM (inactive) |
| Cc1ccsc1/C=N/Nc1ccc2ccccc2n1 | 26.7 µM (inactive) | 8.04 µM (inactive) | 34.4 µM (inactive) | 32.1 µM (inactive) | 12.5 µM (inactive) | 28.1 µM (inactive) | 24.8 | 41.4 µM (inactive) | 16.5 µM (inactive) | 11.1 µM (inactive) | 48.9 µM (inactive) |  | 11.8 µM (inactive) | 59.8 µM (inactive) | 48.8 µM (inactive) | 25.1 µM (inactive) |  | 51.1 µM (inactive) |  | 30.5 µM (inactive) |
| CC1(C)C[C@@H]2C1CCC1(C)CC2(O)CC[C@H]1O (some centres undefined) | > 100 µM (inactive) | > 100 µM (inactive) | > 100 µM (inactive) | > 100 µM (inactive) | > 100 µM (inactive) |  | > 100 | > 100 µM (inactive) | > 100 µM (inactive) | > 100 µM (inactive) |  | > 100 µM (inactive) | > 100 µM (inactive) | > 100 µM (inactive) | > 100 µM (inactive) | > 100 µM (inactive) |  | > 100 µM (inactive) | > 100 µM (inactive) |  |
| O=C(CC(=O)n1nc(-c2ccccc2)c(/N=N/c2ccccc2Cl)c1-c1ccccc1)Nc1ccc(Cl)cc1 | > 100 µM (inactive) | > 100 µM (inactive) |  | > 100 µM (inactive) | > 54.6 µM (inactive) | > 41.3 µM (inactive) | > 43 | > 100 µM (inactive) | > 100 µM (inactive) | > 100 µM (inactive) |  | > 48.1 µM (inactive) | > 42.8 µM (inactive) | > 53.1 µM (inactive) | > 49.3 µM (inactive) | > 100 µM (inactive) |  | > 100 µM (inactive) | > 100 µM (inactive) | > 100 µM (inactive) |
| CCOc1cccc(-c2cc(O)c3cc4c(cc3n2)OCO4)c1 | 0.339 µM (active) | 0.296 µM (active) |  | 0.267 µM (active) | 0.221 µM (active) | 0.0942 µM (active) | 0.189 | 0.265 µM (active) | 0.166 µM (active) | 0.0735 µM (active) | 0.335 µM (active) | 0.318 µM (active) | 0.044 µM (active) | 0.0516 µM (active) | 0.318 µM (active) | 0.043 µM (active) | 0.243 µM (active) | 0.396 µM (active) | 0.141 µM (active) | 0.0953 µM (active) |
| CC(=O)C(=NNc1ccc(-n2c(C)nc3ccccc3c2=O)cc1)C(C)=O | > 100 µM (inactive) | 22.9 µM (inactive) | > 100 µM (inactive) | 55 µM (inactive) | > 100 µM (inactive) | > 100 µM (inactive) | > 100 | > 100 µM (inactive) | > 100 µM (inactive) | > 100 µM (inactive) | > 100 µM (inactive) | > 100 µM (inactive) | > 100 µM (inactive) | > 100 µM (inactive) | 30 µM (inactive) | > 100 µM (inactive) | > 100 µM (inactive) | > 100 µM (inactive) |  |  |
| C/C(CN1C(=O)c2ccccc2C1=O)=N\NS(=O)(=O)c1ccc(Br)cc1 | > 100 µM (inactive) | > 100 µM (inactive) |  | > 100 µM (inactive) | > 100 µM (inactive) | > 100 µM (inactive) | > 100 | > 100 µM (inactive) | > 100 µM (inactive) | > 100 µM (inactive) |  | > 100 µM (inactive) | > 100 µM (inactive) | > 100 µM (inactive) | > 100 µM (inactive) | > 100 µM (inactive) |  | > 100 µM (inactive) | > 100 µM (inactive) | > 100 µM (inactive) |
| O=C(CC(=O)Nc1cccc(C(=O)O)c1)Nc1cccc(C(=O)O)c1 | > 100 µM (inactive) | > 100 µM (inactive) | > 100 µM (inactive) | > 100 µM (inactive) | > 100 µM (inactive) | > 100 µM (inactive) | > 100 | > 100 µM (inactive) |  | > 100 µM (inactive) | > 100 µM (inactive) | > 100 µM (inactive) | > 100 µM (inactive) | > 100 µM (inactive) | > 100 µM (inactive) | 96.6 µM (inactive) | > 100 µM (inactive) | > 100 µM (inactive) |  |  |
| CC(C)NC(=O)OCC[S+]([O-])c1c(Cl)c(Cl)nn1C (centres undefined) | > 100 µM (inactive) | 34.8 µM (inactive) | > 10 µM (inactive) | > 100 µM (inactive) | 34 µM (inactive) | 33.3 µM (inactive) | 20 | > 10 µM (inactive) | > 100 µM (inactive) | > 100 µM (inactive) | > 100 µM (inactive) | > 100 µM (inactive) | 47.5 µM (inactive) | 34 µM (inactive) | 64.9 µM (inactive) | 26.6 µM (inactive) | 28.6 µM (inactive) | 42.9 µM (inactive) |  |  |
| NC1=C(N2CCCCC2)C(=O)NC2=N/C(=C\c3ccco3)C(=O)N21 | > 100 µM (inactive) | > 100 µM (inactive) |  | > 100 µM (inactive) | > 100 µM (inactive) | > 100 µM (inactive) | > 100 | > 100 µM (inactive) | > 100 µM (inactive) | > 100 µM (inactive) | > 100 µM (inactive) |  | > 100 µM (inactive) | > 100 µM (inactive) | > 100 µM (inactive) |  | > 100 µM (inactive) | > 100 µM (inactive) | > 100 µM (inactive) | > 100 µM (inactive) |
| OCC1NCC(O)C(O)C1O (centres undefined) | > 100 µM (inactive) | > 100 µM (inactive) | > 100 µM (inactive) | > 100 µM (inactive) | > 100 µM (inactive) | > 100 µM (inactive) | > 100 | > 100 µM (inactive) | > 100 µM (inactive) | > 10 µM (inactive) | > 100 µM (inactive) | > 100 µM (inactive) | > 100 µM (inactive) |  | > 100 µM (inactive) | > 100 µM (inactive) |  | > 100 µM (inactive) | 22.4 µM (inactive) | > 100 µM (inactive) |
| O=C1C[C@H]2CC3(CC[C@H]2CN1)OCCO3 | > 100 µM (inactive) | > 100 µM (inactive) |  | > 100 µM (inactive) | > 100 µM (inactive) | > 100 µM (inactive) | > 100 | > 100 µM (inactive) | > 100 µM (inactive) | > 100 µM (inactive) |  | > 100 µM (inactive) | > 100 µM (inactive) | > 100 µM (inactive) | > 100 µM (inactive) | > 100 µM (inactive) |  | > 100 µM (inactive) | > 100 µM (inactive) | > 100 µM (inactive) |
